Test results as given in publication PMC10888192, “New Derivatives of 1-(3-Methyl-1-Benzofuran-2-yl)Ethan-1-one: Synthesis and Preliminary Studies of Biological Activity” (International Journal of Molecular Sciences, 2024).

Tests used:
HaCaT cells = assay: Trypan blue exclusion assay, HaCaT; assay type: cell-based, human; details: IC50 concentration, 72 h
Experimental: (§1) The MTT assay assesses the viable cell number based on mitochondrial enzyme activity. […] In the next step of our studies, we analyzed the total cell number and viability after exposure to the selected compounds at IC50 concentration using trypan blue exclusion assay. K562 cells were incubated with tested compounds over 72 h. […] To assess the antiproliferative properties of newly synthesized derivatives, we analyzed the total cell number. […] The parallel experiment was conducted with HaCaT cells. […] The trypan blue test rapidly assesses cell viability indirectly from cell membrane integrity, but some publications have indicated weaknesses of this viability test. […] On the other hand, cell membrane integrity may be affected even while the cell might still be able to repair itself and become fully viable.
To evaluate the antiproliferative effects of the novel benzofurans derivatives the trypan blue exclusion assay was performed. Cells (HaCat, and K562) were seeded into 12-well plates (2 × 10^4 cells/well). After 24 h, cells were exposed to the tested compounds at concentrations of their respective IC50 and incubated for 72h. […] Cells were counted by automatic cell counter (Countessa). Data obtained were expressed as the mean ± SD and the mean percentage of viable cells was calculated from three independent experiments performed in triplicate.

K562 cells [1] = assay: Annexin V-FITC/PI apoptosis assay, flow cytometry; assay type: cell-based, human; details: Annexin V-FITC, IC50 concentration, 72 h
Description: ROS may play a different function in different stages of cancer. ROS might enhance cell growth and proliferation through the induction of various cell signaling pathways involving nuclear factor-kappa B (NF-κB) and STAT3, hypoxia-inducible factor 1α (HIF1α), kinases, growth factors, cytokines and many other proteins. On the other hand, the accumulation of ROS can induce cell damage and promote apoptosis. It has also been confirmed that elevated ROS concentration may cause mitochondrial membrane depolarization and facilitate increased cellular pro-apoptotic molecules releasing. […] As has been previously reported, lead compound 1,1′-[3-(bromomethyl)-5,6-dimethoxy-1-benzofuran-2,7-diyl] induces apoptosis in human leukemia cells. […] We used the Annexin V-FITC test, which allows us to detect the early structural changes in cellular membrane which occur during apoptosis. […] In the control sample almost 94% of cells were neither apoptotic nor necrotic. […] As has been previously written, the MTT test assesses the toxicity of tested compounds based on the activity of mitochondrial enzymes. […] In order to estimate the effect of K562 exposure on the tested compounds as well as to confirm apoptotic properties of new benzofurans, we analyzed the effect of the compounds caspases 3 and 7 activities. […]

K562 cells [2] = assay: Trypan blue exclusion assay, K562; assay type: cell-based, human; details: 72 h; for Cell Number (×10^6): K562, trypan blue, IC50 concentration
Experimental: as §1
To evaluate the antiproliferative effects of the novel benzofurans derivatives the trypan blue exclusion assay was performed. Cells (HaCat, and K562) were seeded into 12-well plates (2 × 10^4 cells/well). After 24 h, cells were exposed to the tested compounds at concentrations of their respective IC50 and incubated for 72h. Then, cells were harvested and centrifugated (500× g, 5min). After centrifugation supernatant was removed and cell sediment was dissolved in 0.2 mL of PBS. Next, 10 µL of cells solution was mixed with 10 µL of trypan blue dye. Cells were counted by automatic cell counter (Countessa). Data obtained were expressed as the mean ± SD and the mean percentage of viable cells was calculated from three independent experiments performed in triplicate.

[3] = system: PC3 cells (human metastatic prostate cancer); assay: MTT cytotoxicity assay, PC3; assay type: cell-based; details: PC-3, 72 h incubation, mean ± SD
Experimental: The cell viability was analyzed at the following six concentrations of compounds: 5, 10, 20, 40, 60 and 100 µM after 72 h incubation.
Additionally, to determine the safety profile of the tested compounds, the therapeutic index (TI) (the ratio of IC50 value in HaCaT to cancer cells K562) was calculated. […] The goal of conducting the MTT assay in this research was to select benzofuran derivatives, which manage to reduce viability of cancer cells while exposing mild effects on normal healthy cells.
The cytotoxicity was evaluated by MTT reduction assay, which measures mitochondrial respiratory function. The test was performed based on the method described by Präbst et al.. Cells (1 × 10^4/well), in logarithmic phase, were seeded into 96-well plates in appropriate medium. After 24 h, cells were exposed to test compounds. […] After 72 h, the medium with the compounds was completely removed and MTT solution (0.5 mg/mL) in fresh medium without serum was added to each well. Plates with cells were incubated for 4 h at 37 °C in the dark. Then, MTT solution was removed and replenished with 0.1 mL DMSO: isopropanol (1:1) mixture to dissolve the generated formazan crystals. The optical density was measured with a […] GO (ThermoScientific) microplate reader at 570 nm. Replicates of three wells for each dosage, including vehicle control, were analyzed for each experiment. The experiments were conducted in triplicate. Control cells which were only treated with respective medium were used as the 100% viability value. […] Additionally, to determine the safety profile of the test compounds, therapeutic indexes (TI) (the ratio of IC50 values in HaCat to cancer cells (K562, PC3, SW620, Cack-1)) were calculated.

Structure (SMILES) | Cell Number (×10^6) (HaCaT cells) | Apoptosis (early and late stages), share of K562 cells (K562 cells [1]) | Reduction of total cell number (K562 cells [2]; K562, IC50 concentration, compared to control) | Cell Number (×10^6) (K562 cells [2]) | IC50 [3]
COc1cc(OC)c2c(CBr)c(C(C)=O)oc2c1 [Compound 6, 1-[3-(Bromomethyl)-4,6-Dimethoxy-1-Benzofuran-2-yl]Ethanone] | 2.45 ± 1.63 ×10^6 | 21.6% | 13% | 0.62 ± 0.12 ×10^6 | 7.02 ± 2.22 µM
CCOc1cccc2oc(C(C)=O)c(CBr)c12 [Compound 8, 1-[3-(Bromomethyl)-4-Ethoxy-1-Benzofuran-2-yl]Ethanone] | 2.00 ± 0.42 ×10^6 | 60.1% | – | 0.83 ± 0.12 ×10^6 | 7.86 ± 2.62 µM
